Test system: 945468-187-T-J3-PDC spheroids with HUVEC/MSC, viability
Test: Anticancer human tumor 945468-187-T-J3-PDC patient-derived rectal carcinoma cell line growth inhibition [PI3K]
Details: for IC50: curve of first compound; for viability, T/C: stronger effect = lower value
Procedure, shortened: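 Combination activity was assessed by viability in multicellular tumor spheroids carrying HUVEC and MSC components. Agents were tested with PI3K inhibitors from a Cmax-based top dose (or 10 microM) downward in half-log increments.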
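Also: spheroids exposed to agents for 7 days before viability read.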
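For viability, T/C in this document: 100% = DMSO vehicle control viability.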

In the case of `CC1(C)CCC(CN2CCN(c3ccc(C(=O)NS(=O)(=O)c4ccc(NCC5CCOCC5)c([N+](=O)[O-])c4)c(Oc4cnc5[nH]ccc5c4)c3)CC2)=C(c2ccc(Cl)cc2)C1` + COc1c(OCCCN2CCOCC2)ccc2c3n(c(=NC(=O)c4cnc(N)nc4)nc12)CCN3, the IC50 (second compound 0.00316 µM) is reported as 6.06 µM, the IC50 (second compound 0.01 µM) is reported as 6.08 µM and the IC50 (second compound 0.0316 µM) is reported as 6.29 µM. It also gave an IC50 (second compound 0.1 µM) of 1.11 µM, an IC50 (second compound 0.316 µM) of under 0.0316 µM and an IC50 (second compound 1 µM) of under 0.0316 µM. For the same compound, the viability, T/C (second compound 0.00316 µM, first compound 0.0316 µM) was 93.4%, the viability, T/C (second compound 0.00316 µM, first compound 0.1 µM) was 106% and the viability, T/C (second compound 0.00316 µM, first compound 0.316 µM) was 117%. It also gave a viability, T/C (second compound 0.00316 µM, first compound 1 µM) of 91.1%, a viability, T/C (second compound 0.00316 µM, first compound 3.16 µM) of 116% and a viability, T/C (second compound 0.00316 µM, first compound 10 µM) of 8%. The viability, T/C (second compound 0.01 µM, first compound 0.0316 µM) was 103%, the viability, T/C (second compound 0.01 µM, first compound 0.1 µM) was 90.8% and the viability, T/C (second compound 0.01 µM, first compound 0.316 µM) was 93.1%. The viability, T/C (second compound 0.01 µM, first compound 1 µM) was 97.3%, the viability, T/C (second compound 0.01 µM, first compound 3.16 µM) was 119% and the viability, T/C (second compound 0.01 µM, first compound 10 µM) was 11.3%. The viability, T/C (second compound 0.0316 µM, first compound 0.0316 µM) was 107%, the viability, T/C (second compound 0.0316 µM, first compound 0.1 µM) was 94% and the viability, T/C (second compound 0.0316 µM, first compound 0.316 µM) was 114%. For the same compound, the viability, T/C (second compound 0.0316 µM, first compound 1 µM) was 98.1%, the viability, T/C (second compound 0.0316 µM, first compound 3.16 µM) was 106% and the viability, T/C (second compound 0.0316 µM, first compound 10 µM) was 13.7%. It also gave a viability, T/C (second compound 0.1 µM, first compound 0.0316 µM) of 54%, a viability, T/C (second compound 0.1 µM, first compound 0.1 µM) of 43.4% and a viability, T/C (second compound 0.1 µM, first compound 0.316 µM) of 50.4%. For the same compound, the viability, T/C (second compound 0.1 µM, first compound 1 µM) was 53%, the viability, T/C (second compound 0.1 µM, first compound 3.16 µM) was 48.5% and the viability, T/C (second compound 0.1 µM, first compound 10 µM) was 8.54%. For the same compound, the viability, T/C (second compound 0.316 µM, first compound 0.0316 µM) was 22.1%, the viability, T/C (second compound 0.316 µM, first compound 0.1 µM) was 20.7% and the viability, T/C (second compound 0.316 µM, first compound 0.316 µM) was 18.1%. It also gave a viability, T/C (second compound 0.316 µM, first compound 1 µM) of 24.3%, a viability, T/C (second compound 0.316 µM, first compound 3.16 µM) of 25.7% and a viability, T/C (second compound 0.316 µM, first compound 10 µM) of 5.28%. It also gave a viability, T/C (second compound 1 µM, first compound 0.0316 µM) of 16.7%, a viability, T/C (second compound 1 µM, first compound 0.1 µM) of 17.9% and a viability, T/C (second compound 1 µM, first compound 0.316 µM) of 17.8%. The viability, T/C (second compound 1 µM, first compound 1 µM) was 19.7%, the viability, T/C (second compound 1 µM, first compound 3.16 µM) was 17.7% and the viability, T/C (second compound 1 µM, first compound 10 µM) was 3.81%.

From PubChem BioAssay AID1963968 (Molecular Pharmacology Branch, DTP, NCI, 2024)
